# Assay results: patent US20220008406A1, “USE OF NUCIFERIN AND LOTUS LEAF EXTRACT IN THE PREPARATION OF A MEDICAMENT FOR TREATING ATROPHIC GASTRITIS AND/OR BLOCKING TRANSFORMATION OF GASTRITIS INTO CANCER” (priority 2018, published 2022)
# Entries after “also recorded” stand apart in the source; their conditions may differ.
# What was measured:
# colon cancer = settings: people who take aspirin for a long time; cited from earlier work
# [1] = test system: rats with chronic atrophic gastritis; assay: Nuciferine treatment of rats with chronic atrophic gastritis with intestinal metaplasia induced by sodium deoxycholate and ammonia water; format: in vivo, SD rats; settings: for pathological state of chronic atrophic gastritis, HE-stained gastric tissue sections: 4 weeks after 8 weeks modeling, vs model group
# Excerpt: An animal model of chronic atrophic gastritis induced by sodium deoxycholate and ammonia water was selected. After the model was successfully established, celecoxib and nuciferine were given by gavage.
# The experiment: The experimental animals were from Beijing Weitong Lihua Laboratory Animal Technology Co., Ltd. Thirty SD rats with a specific pathogen free (SPF) grade of 200±20 g were selected, with half males and half males, and randomly divided into […]: normal control group, chronic atrophic gastritis (CAG) model group, the positive drug celecoxib intervention group and the nuciferine intervention group, with 6 rats in each group. The nuciferine was purchased from Chengdu Refines Biotechnology Co., Ltd., with a specification of 5 g and a purity of over 98%. Celecoxib was purchased from Beijing Bailingwei Technology Co., Ltd., with brand J&K, a specification of 1 g, and purity above 98%. Sodium deoxycholate was purchased from Amresco, USA, with a specification of 100 g. The rats in the model group, celecoxib intervention group and nuciferine intervention group were given sodium deoxycholate solution and ammonia to induce chronic atrophic gastritis. 20 mmol/L sodium deoxycholate was administered […] at a dose of 6 ml/kg, twice a week on an empty stomach, 0.1% ammonia water was drunk freely, and the model was continuously modeled for 8 weeks. […] After modeling, the celecoxib group and the nuciferine intervention group were given celecoxib 10 mg/kg, nuciferine 40 mg/kg, and 10 mg/kg by gavage administration, once a day. During the experiment, the rats' body weight and food intake were observed.
# At the end of the dosing experiment, after the rats were sacrificed by dislocation, the stomach tissue was quickly taken out and prepared for pathological sectioning. The obtained gastric tissue was cut along the greater curvature of the stomach, washed with saline, blotted dry with filter paper, and fixed with formalin solution (10% formaldehyde solution). The sections were embedded, dehydrated by alcohol, and then made transparent with xylene. And then the sections were waxed and embed in paraffin. In the staining stage, the sections were soaked in xylene solution for 10 minutes each time for 3 times; then they were soaked in absolute ethanol and rinsed in tap water. Finally, the sections were stained with hematoxylin (to stain the nucleus) and eosin (to stain the cytoplasm), and the sections were mounted with neutral gum. Finally, the pathological changes of rat stomach tissue were observed under light microscope.
# [2] = test system: Drosophila gastrointestinal stem cells; assay: DSS-induced abnormal proliferation of Drosophila gastrointestinal stem cells (esg-GFP); format: in vivo
# Excerpt: The gastrointestinal tumorigenesis model reported in the publication “Cell Stem Cell” of “Cell” Press was select. Dextran sulfate sodium (DSS) was used to induce abnormal proliferation of Drosophila gastrointestinal stem cells to simulate the process of tumorigenesis. During the modeling period, nuciferine and lotus leaf extract were given.
# The experimental: Dextran sulfate sodium (DSS) was used to induce abnormal proliferation of drosophila gastrointestinal stem cells to simulate the process of tumorigenesis. The experimental drosophila were esg-GFP purchased from Tsinghua Drosophila Center. GFP (green fluorescent protein driven by esg-Ga14) can specifically label intestinal stem cells and enteroblasts. A solution containing 20% sucrose, 3% DSS (average molecular weight 40 kDa) and 0.5% dimethyl sulfoxide (DMSO) was prepared, and the solution was mixed with the drosophila food, and the mixture was placed half-dry and was then used to feed the drosophila to perform modeling. During the modeling period, different groups were given nuciferine and lotus leaf extract. The nuciferine was purchased from Chengdu Refines Biotechnology Co., Ltd., with a specification of 5 g and a purity of over 98%. The lotus leaf extract was purchased from Hebei Chenguang Biotechnology Group Handan Co., Ltd., with a specification of 100 g and a nuciferine content of more than 0.4%. Sodium dextran sulfate was purchased from Beijing Zhongkekeao Biotechnology Co., Ltd. with a brand of mp and a specification of 50 g. The dimethyl sulfoxide was purchased from Amresco, USA, with a specification of 500 ml.
# 1) The Nuciferine Experiment Groups
# Model control group: medium+0.5% DMSO+3% DSS
# Low-dose nuciferine group: medium+0.5% DMSO+3% DSS+nuciferine 100 μM
# High-dose nuciferine group: medium+0.5% DMSO+3% DSS+nuciferine 200 μM
# 2) The Lotus Leaf Extract Experiment Groups
# Lotus leaf extract low-dose group: medium+0.5% DMSO+3% DSS+lotus leaf extract (containing 100 μM […])
# Lotus leaf extract medium-dose group: medium+0.5% DMSO+3% DSS+lotus leaf extract (containing 200 μM […]) […]
# MNNG-GES-1 cells = assay: MTT assay on MNNG-stimulated GES-1 cell model of transformation of gastritis to gastric cancer; format: cell-based, human; settings: nuciferine 48 h
# Excerpt: The gastritis cancer transformation model used in this example formed by human gastric epithelial cells (GES-1) induced by chemical mutagens N-methyl N-nitronitrosoguanidine (MNNG) was as reported in the literature. The nuciferine was purchased from Chengdu Refines Biotechnology Co., Ltd., with a specification of 1 g and a purity of over 98%. The MNNG was purchased from Beijing Baiyiyi Chuang Biotechnology Co., Ltd., with a brand Tixiai and a specification of 5 g. The GES-1 cells were purchased from Shanghai Xuran Biotechnology Co., Ltd. The phosphate buffered saline (PBS) was purchased from Amresco, USA, with a specification of 10 L. The dimethyl sulfoxide (DMSO) was purchased from Amresco, USA, with a specification of 500 ml. The fetal bovine serum (FBS) was purchased from Amresco, USA, with a specification of 100 ml. The 3-(4,5-Dimethylthiazole-2)-2,5-diphenyltetrazolium bromide (MTT) was purchased from Shanghai Biyuntian Biotechnology Co., Ltd., with a specification of 500 mg.
# GES-1 cells was planted in a 96-well plate (8000 cells/well, leave a row of blank holes, discard the edge holes and add an equal volume of PBS to reduce evaporation), the old solution was aspirated the next day, and 10% FBS containing no double antibody medium was added, […] MNNG was added to induce stimulation, culturing for 24 h in the dark, and discarding the culture medium containing MNNG. […]
# [3] = test system: gastric mucosal injury model rats; assay: Protection against gastric mucosal damage induced by absolute ethanol in rats; format: in vivo, SD rats; settings: for congestion and bleeding of the gastric mucosa: then 1.0 mL absolute ethanol
# Excerpt: After continuous administration of […] and […] in rats, gastric mucosal damage was induced by absolute ethanol, and the gastric mucosal damage was observed under a microscope after dissection.
# The experimental: The experimental animals were from Beijing Sibeifu Biotechnology Co., Ltd., and 30 SD rats of 200±20 g specific pathogen free (SPF) grade, male, were chosen and randomly divided into 5 groups: normal control group, the gastric mucosal injury model group, the nuciferine low-dose group, the nuciferine high-dose group and the lotus leaf extract group, as shown in Table 3. The low-dose nuciferine group, the high-dose nuciferine group and the lotus leaf extract group were administered intragastrically for 14 days, once a day. The nuciferine was purchased from Chengdu Refines Biotechnology Co., Ltd., with a specification of 5 g and a purity of over 98%. The lotus leaf extract was purchased from Hebei Chenguang Biotechnology Group Handan Co., Ltd., with a specification of 1 kg and a content of nuciferine of more than 0.4%. 1 hour after the rats in the low-dose nuciferine group, the high-dose nuciferine group and the lotus leaf extract group were given continuous administration, the rats in the control group and the model group were strictly fasted for 24 hours (with water available), and medicine was also prohibited during this period. Rats in the model group, the low-dose nuciferine group, the high-dose nuciferine group, and the lotus leaf extract group were given 1.0 mL of absolute ethanol per rat by intragastric administration; 1 hour after the completion of the modeling, the rats were sacrificed by blood sampling from the abdominal aorta, and the stomach was taken by cutting the abdomen, was injected with 10% formaldehyde solution, and fixed for 20 minutes, then the stomach was cut along the greater curvature of the same and was washed to remove the stomach contents, and a general observation under a dissecting microscope was conducted and the length of injury (mm) was measured.
Compound,reduction of incidence of colon cancer (colon cancer) [%],"pathological state of chronic atrophic gastritis, HE-stained gastric tissue sections ([1]; 10 mg/kg (celecoxib group; low-dose nuciferine group) by gavage once a day)","pathological state of chronic atrophic gastritis, HE-stained gastric tissue sections ([1]; 40 mg/kg (high-dose nuciferine group) by gavage once a day)","weight of rats ([1]; CAG model rats, therapeutic administration, dose groups not distinguished)","treatment of chronic atrophic gastritis and intestinal metaplasia of rats (pathological slices) ([1]; intervention groups, doses not distinguished)",abnormal proliferation of Drosophila gastrointestinal stem cells and mucosal ulceration ([2]; doses not distinguished),"proliferation of drosophila gastrointestinal stem cells ([2]; high-dose nuciferine 200 μM in medium + 0.5% DMSO + 3% DSS, 3-5 days at 25° C.)","abnormal proliferation of drosophila gastrointestinal stem cells ([2]; low-dose nuciferine 100 μM in medium + 0.5% DMSO + 3% DSS, 3-5 days at 25° C.)","IC50 (MNNG-GES-1 cells; Homo sapiens, GES1, GES-1 cells stimulated with MNNG 24 h, read-out: half inhibitory concentration (IC50) on cells transformed from gastritis to gastric cancer) [µM]",viability of MNNG-GES-1 cells (MNNG-GES-1 cells; P<0.05),gastric mucosal injury of rats compared with the model group ([3]; doses not distinguished),congestion and bleeding of the gastric mucosa ([3]; nuciferine high-dose 40 mg/kg intragastric once a day 14 days),congestion and bleeding of the gastric mucosa ([3]; nuciferine low-dose 20 mg/kg intragastric once a day 14 days)
CC(=O)Oc1ccccc1C(=O)O [aspirin],24,–,–,–,–,–,–,–,–,–,–,–,–
COc1cc2c3c(c1OC)-c1ccccc1C[C@H]3N(C)CC2 [nuciferine],–,reduced to the state of chronic non-atrophic gastritis,best effect; also recorded: significantly reduced,increased the weight of rats,effectively treated,effectively inhibited,returned to normal,reduced,92.7,significantly inhibiting,significantly improved; also recorded: improved compared with the model group,no congestion and bleeding,reduced
